Measured values from patent publication US20190337971A1, “PANTETHEINE DERIVATIVES FOR THE TREATMENT OF NEUROLOGIC DISORDERS” (Retrophin, Inc., priority 2016, published 2019).

Test system: PANK2−/− IMR32 cells
Assay: Coenzyme A assay in PANK2 silenced cells (LC-MS quantification of free CoA)
Type: cell-based, human
Conditions: fold increase in CoA levels relative to controls, treated twice, 24 h + 24 h; for fold induction at 1 µM: compound concentration 1 uM; for fold induction at 50 µM: compound concentration 50 uM
Method: A human neuroblastoma IMR32 cell line (ATCC) with stably PANK2 silencing was obtained by lentiviral-delivered small hairpin RNA and cultured in MEM (Invitrogen) supplemented with 10% fetal bovine serum, 2 mM glutamine, 1% penicillin-streptomycin, 1 mM sodium pyruvate, 1 mM non-essential amino acids, and 1.5 g/l sodium bicarbonate.
A non-silencing shRNA construct (scrambled shRNA) and an empty vector expressing GFP alone were used as negative controls. The GFP tag subcloned into the lentiviral vectors was used to monitor the transfection efficiency.
Three days after transduction medium was removed and replaced with fresh medium containing […] puromycin. […] The level of PANK2 expression in selected clones was assessed by Western Blot analysis.
To quantify CoA, PANK2−/− IMR32 cells were plated on 12-well culture plates (Corning) at a density of 0.2×10^6 cells per well. […] Controls with medium containing 0.1% DMSO without test compounds were also included in each plate. […] Before LC-MS analysis of CoA levels, cells were harvested, counted, and collected in a 15 ml falcon tube and centrifuged at 200×g for 5 min at 4° C. Supernatant was removed and cell pellet was washed in 10 ml of ice-cold PBS. To further confirm that the numbers of cells in each sample were equivalent, an equal fraction of pellet was collected from each sample and subjected to protein determination analysis. After centrifugation and supernatant removal, the cell pellet was rapidly frozen in Liquid Nitrogen and stored at −80° C. until analysis.
Intracellular CoA levels were calculated considering an intracellular volume of 1 million cells=2 μl.
The 1*10^6 cellular pellet was extracted with 120 μl of aqueous 20% TFA.
100 μL samples of supernatant were dried under N2 at 20° C. in the dark.
Samples were re-dissolved in 100 μl of 10 mM NH4^+ AcO^− buffer pH 5.1+IS (Dextrorphan 50 ng/ml), stirred for 2 min, sonicated in ultrasonic bath for 1 min, then stirred again for 1 min, and injected into LC-MS.
LC-MS/MS was performed using an Agilent HPLC (1100 Series, USA). The LC system was interfaced with an API-4000 Q-Trap triple quadrupole mass spectrometer (AB Sciex, Toronto, Canada) equipped with a TurboIonSpray ionization source operating in positive ion mode. Analyst™ software version 1.6 (AB Sciex, Toronto, Canada) was used for data acquisition and processing. CoA was separated using a Luna C18 column (2.0×50 mm; 5 μm particle size), column at 25° C. and flow rate of 0.2 ml/min. Injection volume was 15 μl. The mobile phases consisted of water containing 10 mM ammonium acetate pH 7 (mobile phase A) and MeCN-2-propanol 9:1 (mobile phase B).
Results are expressed as fold increase in CoA levels relative to controls (using LC-MS quantification of free CoA).

SMILES	fold induction at 1 µM (Homo sapiens, IMR-32)	fold induction at 50 µM (Homo sapiens, IMR-32)	also measured
CC(=O)SCCNC(=O)CCNC(=O)[C@@H]1OP(=O)(Oc2ccccc2)OCC1(C)C (stereo partly drawn) [R1043, S-(2-(3-((4R)-5,5-dimethyl-2-oxido-2-phenoxy-1,3,2-dioxaphosphinane-4-carboxamido)propanamido)ethyl) ethanethioate]			PANK2−/− CoA Fold increase (compound concentration 10 uM): 1.1 fold
CC(=O)SCCNC(=O)CCNC(=O)[C@@H]1O[P@@](=O)(OCOC(=O)c2cc(C(C)(C)C)nn2C)OCC1(C)C [R1045, (((2S,4R)-4-((3-((2-(acetylthio)ethyl)amino)-3-oxopropyl)carbamoyl)-5,5-dimethyl-2-oxido-1,3,2-dioxaphosphinan-2-yl)oxy)methyl 3-(tert-butyl)-1-methyl-1H-pyrazole-5-carboxylate]	2.3		
COc1ccc(C(=O)OCOP2(=O)OCC(C)(C)[C@H](C(=O)NCCC(=O)NCCSC(C)=O)O2)cc1 (stereo partly drawn) [R1035, (((4R)-4-((3-((2-(acetylthio)ethyl)amino)-3-oxopropyl)carbamoyl)-5,5-dimethyl-2-oxido-1,3,2-dioxaphosphinan-2-yl)oxy)methyl 4-methoxybenzoate]	18		
CC(=O)SCCNC(=O)CCNC(=O)[C@@H]1OP(=O)(OCOC(=O)C(C)C)OCC1(C)C (stereo partly drawn) [R1024, (((4R)-4-((3-((2-(acetylthio)ethyl)amino)-3-oxopropyl)carbamoyl)-5,5-dimethyl-2-oxido-1,3,2-dioxaphosphinan-2-yl)oxy)methyl isobutyrate]	1.4		
COc1cccc(C(=O)OCOP2(=O)OCC(C)(C)[C@H](C(=O)NCCC(=O)NCCSC(C)=O)O2)c1 (stereo partly drawn) [R1038, (((4R)-4-((3-((2-(acetylthio)ethyl)amino)-3-oxopropyl)carbamoyl)-5,5-dimethyl-2-oxido-1,3,2-dioxaphosphinan-2-yl)oxy)methyl 3-methoxybenzoate]	26.2		
COC(=O)[C@@H](N[P@@]1(=O)OCC(C)(C)[C@H](C(=O)NCCC(=O)NCCSC(C)=O)O1)C(C)C [R1014, methyl ((2R,4R)-4-((3-((2-(acetylthio)ethyl)amino)-3-oxopropyl)carbamoyl)-5,5-dimethyl-2-oxido-1,3,2-dioxaphosphinan-2-yl)-L-valinate]		1.7	
CC(=O)SCCNC(=O)CCNC(=O)[C@@H]1OP(=O)(OCOC(=O)c2ccc(C)cc2)OCC1(C)C (stereo partly drawn) [R1036, (((4R)-4-((3-((2-(acetylthio)ethyl)amino)-3-oxopropyl)carbamoyl)-5,5-dimethyl-2-oxido-1,3,2-dioxaphosphinan-2-yl)oxy)methyl 4-methylbenzoate]	52.2		
CC(=O)SCCNC(=O)CCNC(=O)[C@@H]1O[P@@](=O)(OCOC(=O)OC(C)C)OCC1(C)C [R1017, S-(2-(3-((2S,4R)-2-(((isopropoxycarbonyl)oxy)methoxy)-5,5-dimethyl-2-oxido-1,3,2-dioxaphosphinane-4-carboxamido)propanamido)ethyl) ethanethioate]	18.4		
CC(=O)SCCNC(=O)CCNC(=O)[C@@H]1OP(=O)(OCOC(=O)c2ccccc2)OCC1(C)C (stereo partly drawn) [R1009, (((4R)-4-((3-((2-(acetylthio)ethyl)amino)-3-oxopropyl)carbamoyl)-5,5-dimethyl-2-oxido-1,3,2-dioxaphosphinan-2-yl)oxy)methyl benzoate]	69.5		
CC(=O)SCCNC(=O)CCNC(=O)[C@@H]1O[P@](=O)(OCOC(=O)c2cc(C(C)(C)C)nn2C)OCC1(C)C [R1044, (((2R,4R)-4-((3-((2-(acetylthio)ethyl)amino)-3-oxopropyl)carbamoyl)-5,5-dimethyl-2-oxido-1,3,2-dioxaphosphinan-2-yl)oxy)methyl 3-(tert-butyl)-1-methyl-1H-pyrazole-5-carboxylate]	20.3		
CC(=O)SCCNC(=O)CCNC(=O)[C@@H]1OP(=O)(OCOC(=O)NC(C)(C)COC(=O)C(C)(C)C)OCC1(C)C (stereo partly drawn) [R1028, 2-((((((4R)-4-((3-((2-(acetylthio)ethyl)amino)-3-oxopropyl)carbamoyl)-5,5-dimethyl-2-oxido-1,3,2-dioxaphosphinan-2-yl)oxy)methoxy)carbonyl)amino)-2-methylpropyl pivalate]		5.7	
CC(=O)SCCNC(=O)CCNC(=O)[C@@H]1OP(=O)(OCOC(=O)c2cccc(Cl)c2)OCC1(C)C (stereo partly drawn) [R1034, (((4R)-4-((3-((2-(acetylthio)ethyl)amino)-3-oxopropyl)carbamoyl)-5,5-dimethyl-2-oxido-1,3,2-dioxaphosphinan-2-yl)oxy)methyl 3-chlorobenzoate]	29.6		
COC(=O)[C@H](C)N[P@]1(=O)OCC(C)(C)[C@H](C(=O)NCCC(=O)NCCSC(C)=O)O1 [R1004, methyl ((2S,4R)-4-((3-((2-(acetylthio)ethyl)amino)-3-oxopropyl)carbamoyl)-5,5-dimethyl-2-oxido-1,3,2-dioxaphosphinan-2-yl)-L-alaninate]		2.1	
CC(=O)SCCNC(=O)CCNC(=O)[C@@H]1O[P@@](=O)(Oc2ccccc2)OCC1(C)C [R1041, S-(2-(3-((2S,4R)-5,5-dimethyl-2-oxido-2-phenoxy-1,3,2-dioxaphosphinane-4-carboxamido)propanamido)ethyl) ethanethioate]			PANK2−/− CoA Fold increase (compound concentration 10 uM): 1.8 fold
CC(=O)SCCNC(=O)CCNC(=O)[C@@H]1O[P@@](=O)(OCOC(=O)NCCOC(=O)C(C)(C)C)OCC1(C)C [R1030, 2-((((((2S,4R)-4-((3-((2-(acetylthio)ethyl)amino)-3-oxopropyl)carbamoyl)-5,5-dimethyl-2-oxido-1,3,2-dioxaphosphinan-2-yl)oxy)methoxy)carbonyl)amino)ethyl pivalate]			fold induction at 10 µM (Homo sapiens, IMR-32, compound concentration 10 uM): 7.1
CC(=O)SCCNC(=O)CCNC(=O)[C@@H]1OP(=O)(OCOC(=O)NCCOC(=O)[C@@H](N)C(C)C)OCC1(C)C (stereo partly drawn) [R1032, 2-((((((4R)-4-((3-((2-(acetylthio)ethyl)amino)-3-oxopropyl)carbamoyl)-5,5-dimethyl-2-oxido-1,3,2-dioxaphosphinan-2-yl)oxy)methoxy)carbonyl)amino)ethyl L-valinate]		1	
CC(=O)SCCNC(=O)CCNC(=O)[C@@H]1OP(=O)(OCOC(=O)c2ccc(C(F)(F)F)cc2)OCC1(C)C (stereo partly drawn) [R1037, (((4R)-4-((3-((2-(acetylthio)ethyl)amino)-3-oxopropyl)carbamoyl)-5,5-dimethyl-2-oxido-1,3,2-dioxaphosphinan-2-yl)oxy)methyl 4-(trifluoromethyl)benzoate]	30.1		
COC(=O)[C@@H](NP1(=O)OCC(C)(C)[C@H](C(=O)NCCC(=O)NCCSC(C)=O)O1)C(C)C (stereo partly drawn) [R1026, methyl ((4R)-4-((3-((2-(acetylthio)ethyl)amino)-3-oxopropyl)carbamoyl)-5,5-dimethyl-2-oxido-1,3,2-dioxaphosphinan-2-yl)-L-valinate]		2.5	
CC(=O)SCCNC(=O)CCNC(=O)[C@@H]1OP(=O)(OCOC(=O)N[C@@H](CSC(=O)C(C)(C)C)C(=O)OCc2ccccc2)OCC1(C)C (stereo partly drawn) [R1029, benzyl N-(((((4R)-4-((3-((2-(acetylthio)ethyl)amino)-3-oxopropyl)carbamoyl)-5,5-dimethyl-2-oxido-1,3,2-dioxaphosphinan-2-yl)oxy)methoxy)carbonyl)-S-pivaloyl-L-cysteinate]		120	
